From ChEMBL document CHEMBL1132505, “Allosteric modulators of the AMPA receptor: novel 6-substituted dihydrophthalazines” (1999) come the findings set out here.

Assay [1] concerns the target Glutamate receptor ionotropic, AMPA (Rattus norvegicus) (UniProt P19491+P19492+P19493+P19490). Briefly: Inhibition of KA induced currents associated with activation of the AMPA subtype of glutamate receptors in cerebellar neurons at a concentration of 10 uM. The class given is protein-complex assay.
For assay [2], the species on record is Mus musculus. Briefly: Reduced sedation using rotarod test in mouse. The class given is functional. In general terms: Falling from the rotarod earlier than controls is read as motor impairment.
Assay [3] concerns Mus musculus. As to the kind of experiment: In vivo anticonvulsant activity in mice using maximal electroshock (MES) assay. The class given is functional.
The subject of another assay is Rattus norvegicus. As to the kind of experiment: In vivo anticonvulsant activity in rats using maximal electroshock (MES) assay; value ranges from 35-50 mg/kg. The class given is functional. A general note: The maximal electroshock test induces tonic seizures with an electrical stimulus.
For assay [4], the system named is Mus musculus. As to the kind of experiment: In vivo anticonvulsant activity in mice using maximal electroshock (MES) assay; value ranges from 35-50 mg/kg. The class given is functional.

The structures appear in SMILES notation.

By inhibition is commonly meant the percentage by which the read-out fell short of the control. A high value points to a response far below the control. For orientation: ED50 means the dose that gives a 50% effect, or the effect in half of the subjects. A high value points to a need for a large dose.

In turn, `CCCCNC(=O)N1N=C(c2ccc(N)cc2)c2cc(OC)ccc2C1C` (stereo unspecified) yielded an inhibition in assay [1] of 50%.
Take `CCCNC(=O)N1N=C(c2ccc(N)cc2)c2cc(OC)ccc2C1C` (stereo unspecified): in assay [1], the inhibition amounted to 52%. The ED50 in the assay listed under Mus musculus [2] turned out to be 150 mg/kg; in the assay on Mus musculus [3], 52 mg/kg.
The molecule `CCCNC(=O)N1N=C(c2ccc(N)cc2)c2cc3c(cc2C1C)OCO3` (stereo unspecified) gave an inhibition in assay [1] of 58%. Moreover, the ED50 in the assay on Rattus norvegicus and in the assay on Mus musculus [4] was 35 mg/kg throughout.
Regarding `CCCNC(=O)N1N=C(c2ccc(N)cc2)c2cc(F)ccc2C1C` (stereo unspecified), the inhibition in assay [1] stood at 55%.
`CCCCNC(=O)N1N=C(c2ccc(N)cc2)c2cc3c(cc2C1C)OCO3` (stereo unspecified) had an inhibition in assay [1] of 62%. Besides, the ED50 in the assay on Rattus norvegicus and with Mus musculus [4] was 35 mg/kg each time.
